Source: paper PMC10886515, “Discovery of A Novel Series of Quinazoline–Thiazole Hybrids as Potential Antiproliferative and Anti-Angiogenic Agents” (Biomolecules, 2024)
Read-outs that look alike come from different tables or passages of the source.

Tests used:
HepG2 cells = assay: Alamar Blue cytotoxicity assay on HepG2 cells; format: cell-based, human; conditions: for IC50: Homo sapiens, read-out: IC50 HepG2; for Selectivity Index SIb: SIb = IC50 BJ/IC50 HepG2
Excerpt: (§1) A human endothelial hybrid cell line (EA.hy926) (passage number 10–15), human hepatocellular carcinoma (HepG2) cells (passage number 10–15), and normal foreskin fibroblasts (BJ) (passage number 5–10) were used in the present study. All cell lines were purchased from ATCC (Manassas, United States of America). EA.hy926 cells were maintained in DMEM with high glucose supplemented with 1% sodium pyruvate, while the BJ cells were maintained in DMEM with low glucose concentration. HepG2 cells were cultured in MEM. All media were supplemented with 10% fetal bovine serum (FBS) and 1% penicillin/streptomycin. All cell lines were cultured at 37 °C in an incubator with 5% CO2 supplementation and cellular media were refreshed every other day. Once the cells reached a confluency of 80–90%, they were either subcultured or used in experiments.
(§2) The synthesized compounds’ cytotoxicity was evaluated using the Alamar Blue (AB) assay as previously described. The metabolically active cell-dependent conversion of non-fluorescent resazurin to the highly fluorescent resorufin compound is quantified spectrophotometrically at λexcitation = 530/25; λemission = 590/35, using a Synergy 2 Multi-Mode microplate reader. Briefly, a total of 5 x 10^3 EA.hy926 and BJ cells and 1 x 10^4 HepG2 cells were seeded in 100 µL in 96 well plates. The cells were left to attach overnight. […] At 48 h post-stimulation, the media were removed, and the AB assay was performed. The reported range of concentrations for each compound was obtained by employing the up-and-down method.
(§3) The experiments were conducted in three biological replicates, each one including 6 technical replicates. Cells exposed to culture media with 0.2% DMSO served as negative control (NC) and were used for data normalization (100%). The 50% Inhibitory Concentration (IC50) values were determined based on the dose–response curves obtained by fitting the experimental data with a 4-parameter logistic curve in SigmaPlot 11 software.

[1] = system: chorioallantoic membrane (CAM) of chicken eggs; assay: Chorioallantoic egg membrane (CAM) assay; format: in vivo; conditions: for peak number of vascular branching points from day 3, fold lower than control sample: day 3 vs control (0.2% DMSO); for reduction in vascular branching on day 4 compared to day 3: day 4 vs day 3; for reduction in the number of vascular branching points on day 5 compared to day 5 of the control sample: day 5 vs control (0.2% DMSO); for reduction in vascular branching on day 5 compared to day 3: day 5 vs day 3
Protocol: To assess the anti-angiogenic effects, a biological model represented by the chorioallantoic membrane (CAM) of chicken eggs was employed. […] The experimental procedure involved the following steps: (I) initial cleaning with 70% alcohol solution and incubation of the eggs at a constant humidity (45%) and temperature (37.5 °C) on the first day; (II) on the third day of embryonic development (EDD3), a small hole at the egg tip was created and approximately 5–7 mL of albumen were extracted to facilitate detachment of the chorioallantoic membrane from the inner shell; and (III) on EDD4, a window was created at the egg’s top to visualize the vascular plexus, covering it with adhesive tape, and returning the egg to the incubator until the experiment’s commencement.
The assessment of anti-angiogenic impact began on the sixth day of embryonic development and extended over five days. To achieve this, a silicon ring was applied to the CAM, and 10 μL of the tested compounds was administered daily within the ring. The evaluation of angiogenesis involved daily photographic documentation of the vascular plexus using a Discovery v.8 stereomicroscope, a Zeiss Axio CAM 105 color camera, and ZEN core 3.8 software. […] The quantitative evaluation of vessel numbers branching points and total vessel area was performed using the IKOSA Prism Application CAM assay (v3.1.0).

BJ cells = assay: Alamar Blue cytotoxicity assay on BJ cells; format: cell-based; conditions: Homo sapiens, 48 h exposure, normal foreskin fibroblasts
Excerpt: as §1, §2, §3

EA.hy926 cells [2] = assay: Wound healing (scratch) assay; format: cell-based, human; conditions: 12 h
Protocol: EA.hy926 cells were seeded in 12-well plates and incubated for 24 h until confluency was reached. The medium was removed and a scratch in the cell monolayer was manually added with a sterile pipette tip. Subsequently, the cells were gently washed two times with DPBS to remove the detached cells. […] Images were captured at the time of exposure (T0) and 12 h post-exposure (T12). The rate of cell migration was determined by calculating the wound healing percentage (%) according to the formula (AT0 – AT12)/ AT0*100 previously reported. The scratch area at the initial time of exposure (AT0) and after 12 h (AT12), expressed as square pixels (Px^2), were determined using the IKOSA Prisma Application Wound Healing (Scratch) assay (v2.2.0).

EA.hy926 cells [3] = assay: Alamar Blue cytotoxicity assay on EA.hy926 cells; format: cell-based, human; conditions: for IC50: Homo sapiens, read-out: IC50 EA.hy926; for Selectivity Index SIa: SIa = IC50 BJ/IC50 EA.hy296
Excerpt: as §1, §2, §3

[4] = Solubility observed in the cellular media; format: physicochemical; conditions: plasma or biological fluid, read-out: concentrations at which limited solubility in the cellular media was observed
[5] = HepG2, 48 h exposure, Alamar Blue
[6] = EA.hy 926, 48 h exposure, Alamar Blue

COc1cc2ncnc(Oc3ccc(/C=N/Nc4nc(-c5ccc(C(F)(F)F)cc5)cs4)cc3)c2cc1OC [SA04, (E)-2-(2-(4-((6,7-dimethoxyquinazolin-4-yl)oxy)benzylidene)hydrazineyl)-4-(4-(trifluoromethyl)-phenyl)thiazole]
IC50 (HepG2 cells; [5]): 2.72 µM
Selectivity Index SIb (HepG2 cells): 2.50
melting point: 237 to 238 °C
peak number of vascular branching points from day 3, fold lower than control sample [1]: 1.3 fold
reduction in vascular branching on day 4 compared to day 3 [1]: 47%
reduction in the number of vascular branching points on day 5 compared to day 5 of the control sample [1]: 67%
reduction in vascular branching on day 5 compared to day 3 [1]: 60%
IC50 (BJ cells): 6.79 µM
Wound heal (%) (EA.hy926 cells [2]; 0.25 μM): 63.45%
Wound heal (%) (EA.hy926 cells [2]; 0.5 μM): 46.99%
Wound heal (%) (EA.hy926 cells [2]; 0.75 μM): 46.83%
Wound heal (%) (EA.hy926 cells [2]; 1 μM): 43.87%
IC50 (EA.hy926 cells [3]; [6]): 0.98 µM
Selectivity Index SIa (EA.hy926 cells [3]): 6.93

COc1cc2ncnc(Oc3ccc(/C=N/Nc4nc(-c5ccc(F)cc5)cs4)cc3)c2cc1OC [SA02, (E)-2-(2-(4-((6,7-dimethoxyquinazolin-4-yl)oxy)benzylidene)hydrazineyl)-4-(4-fluorophenyl)-thiazole]
IC50 (HepG2 cells; [5]): 2.34 µM
Selectivity Index SIb (HepG2 cells): 1.00
melting point: 242 to 243 °C
IC50 (BJ cells): 2.35 µM
IC50 (EA.hy926 cells [3]; [6]): 0.93 µM
Selectivity Index SIa (EA.hy926 cells [3]): 2.53

COc1cc2ncnc(Oc3ccc(/C=N/Nc4nc(-c5ccc(C#N)cc5)cs4)cc3)c2cc1OC [SA05, (E)-2-(2-(4-((6,7-dimethoxyquinazolin-4-yl)oxy)benzylidene)hydrazineyl)-4-(4-benzonitrile)thiazole]
fold higher activity compared to sorafenib (HepG2 cells; HepG2 cells): 3.5 fold
IC50 (HepG2 cells; [5]): 1.83 µM
Selectivity Index SIb (HepG2 cells): 1.46
peak number of vascular branching points from day 3, fold lower than control sample [1]: 1.18 fold
reduction in vascular branching on day 4 compared to day 3 [1]: 16%
reduction in the number of vascular branching points on day 5 compared to day 5 of the control sample [1]: 42%
reduction in vascular branching on day 5 compared to day 3 [1]: 39%
IC50 (BJ cells): 2.67 µM
Wound heal (%) (EA.hy926 cells [2]; 0.75 μM): 66.41%
Wound heal (%) (EA.hy926 cells [2]; 1 μM): 62.45%
Wound heal (%) (EA.hy926 cells [2]; 1.25 μM): 61.52%
Wound heal (%) (EA.hy926 cells [2]; 1.5 μM): 54.42%
IC50 (EA.hy926 cells [3]; [6]): 1.4 µM
Selectivity Index SIa (EA.hy926 cells [3]): 1.91

COc1cc2ncnc(Oc3ccc(/C=N/Nc4nc(C)cs4)cc3)c2cc1OC [SA06, (E)-2-(2-(4-((6,7-dimethoxyquinazolin-4-yl)-oxy)-benzylidene-)hydrazineyl)-4-methyl-thiazole]
IC50 (HepG2 cells; [5]): > 100 µM
solubility [4]: > 5 µM
IC50 (BJ cells): > 100 µM
IC50 (EA.hy926 cells [3]; [6]): > 10 µM

COc1cc2ncnc(Oc3ccc(/C=N/Nc4nc(-c5ccc(Cl)cc5)cs4)cc3)c2cc1OC [SA03, (E)-2-(2-(4-((6,7-dimethoxyquinazolin-4-yl)oxy)benzylidene)hydrazineyl)-4-(4-chlorophenyl)-thiazole]
IC50 (HepG2 cells; [5]): 4.24 µM
Selectivity Index SIb (HepG2 cells): 0.67
melting point: 231 to 232 °C
IC50 (BJ cells): 2.84 µM
fold higher activity compared to sorafenib (EA.hy926 cells [3]; EA.hy926 cells): 8.3 fold
IC50 (EA.hy926 cells [3]; [6]): 0.79 µM
Selectivity Index SIa (EA.hy926 cells [3]): 3.59

CNC(=O)c1cc(Oc2ccc(NC(=O)Nc3ccc(Cl)c(C(F)(F)F)c3)cc2)ccn1 [Sorafenib, sorafenib, reference compound]
IC50 (HepG2 cells; HepG2, 48 h): 6.28 µM
IC50 (BJ cells): 13.2 µM
Wound heal (%) (EA.hy926 cells [2]; 1.25 μM): 70.54%
Wound heal (%) (EA.hy926 cells [2]; 2.5 μM): 37.99%
Wound heal (%) (EA.hy926 cells [2]; 5 μM): 18.88%
IC50 (EA.hy926 cells [3]; EA.hy 926, 48 h): 6.62 µM

COc1ccc(-c2csc(N/N=C/c3ccc(Oc4ncnc5cc(OC)c(OC)cc45)cc3)n2)cc1 [SA01, (E)-2-(2-(4-((6,7-dimethoxyquinazolin-4-yl)oxy)-benzylidene)hydrazineyl)-4-(4-methoxyphenyl)-thiazole]
IC50 (HepG2 cells; [5]): 31.2 µM
Selectivity Index SIb (HepG2 cells): 1.16
melting point: 230 °C
IC50 (BJ cells): 36.2 µM
IC50 (EA.hy926 cells [3]; [6]): 3.64 µM
Selectivity Index SIa (EA.hy926 cells [3]): 9.96

COc1cc2ncnc(Oc3ccc(/C=N/Nc4nc(-c5ccc(O)c(C(N)=O)c5)cs4)cc3)c2cc1OC [SA07, (E)-5-(2-(2-(4-((6,7-dimethoxyquinazolin-4-yl)oxy)benzylidene)hydrazineyl)thiazol-4-yl)-2-hydroxy-benzamide]
IC50 (HepG2 cells; [5]): 27.3 µM
Selectivity Index SIb (HepG2 cells): 0.87
melting point: 246 to 247 °C
IC50 (BJ cells): 23.8 µM
IC50 (EA.hy926 cells [3]; [6]): 5.85 µM
Selectivity Index SIa (EA.hy926 cells [3]): 4.06
